Results published in ChEMBL document CHEMBL1649268, “Comparative in vitro activity profile of oritavancin against recent gram-positive clinical isolates” (2009).
In brackets after ≈: the same amount, converted by molar mass.

Experiments:
Assay type in all cases: functional
Staphylococcus aureus [1] = test: Antimicrobial activity against oxacillin-resistant Staphylococcus aureus clinical isolates assessed as percent susceptible isolates by broth microdilution method
[2] = test system: Staphylococcus haemolyticus; test: Antimicrobial activity against Staphylococcus haemolyticus clinical isolates assessed as resistant isolates by broth microdilution method
[3] = test system: Staphylococcus epidermidis; test: Antimicrobial activity against oxacillin-susceptible Staphylococcus epidermidis clinical isolates assessed as resistant isolates by broth microdilution method
[4] = test system: Staphylococcus epidermidis; test: Antimicrobial activity against oxacillin-susceptible Staphylococcus epidermidis clinical isolates by broth microdilution method
[5] = test system: Staphylococcus epidermidis; test: Antimicrobial activity against Staphylococcus epidermidis clinical isolates assessed as percent susceptible isolates by broth microdilution method
[6] = test system: Staphylococcus haemolyticus; test: Antimicrobial activity against Staphylococcus haemolyticus clinical isolates by broth microdilution method
[7] = test system: Staphylococcus epidermidis; test: Antimicrobial activity against oxacillin-susceptible Staphylococcus epidermidis clinical isolates assessed as percent susceptible isolates by broth microdilution method
[8] = test system: Staphylococcus haemolyticus; test: Antimicrobial activity against oxacillin-susceptible Staphylococcus haemolyticus clinical isolates assessed as resistant isolates by broth microdilution method
[9] = test system: Staphylococcus haemolyticus; test: Antimicrobial activity against oxacillin-susceptible Staphylococcus haemolyticus clinical isolates assessed as percent susceptible isolates by broth microdilution method
Staphylococcus aureus [10] = test: Antimicrobial activity against Staphylococcus aureus clinical isolates assessed as resistant isolates by broth microdilution method
[11] = test system: Staphylococcus haemolyticus; test: Antimicrobial activity against oxacillin-susceptible Staphylococcus haemolyticus clinical isolates by broth microdilution method
Staphylococcus aureus [12] = test: Antimicrobial activity against Staphylococcus aureus clinical isolates by broth microdilution method
Staphylococcus aureus [13] = test: Antimicrobial activity against oxacillin-susceptible Staphylococcus aureus clinical isolates assessed as percent susceptible isolates by broth microdilution method
[14] = test system: Staphylococcus haemolyticus; test: Antimicrobial activity against Staphylococcus haemolyticus clinical isolates assessed as percent susceptible isolates by broth microdilution method
Staphylococcus aureus [15] = test: Antimicrobial activity against oxacillin-susceptible Staphylococcus aureus clinical isolates by broth microdilution method
Staphylococcus aureus [16] = test: Antimicrobial activity against oxacillin-resistant Staphylococcus aureus clinical isolates by broth microdilution method
Staphylococcus aureus [17] = test: Antimicrobial activity against oxacillin-resistant Staphylococcus aureus clinical isolates assessed as resistant isolates by broth microdilution method
[18] = test system: Staphylococcus haemolyticus; test: Antimicrobial activity against oxacillin-resistant Staphylococcus haemolyticus clinical isolates assessed as resistant isolates by broth microdilution method
[19] = test system: Staphylococcus epidermidis; test: Antimicrobial activity against oxacillin-resistant Staphylococcus epidermidis clinical isolates by broth microdilution method
Staphylococcus aureus [20] = test: Antimicrobial activity against Staphylococcus aureus clinical isolates assessed as percent susceptible isolates by broth microdilution method
[21] = test system: Staphylococcus epidermidis; test: Antimicrobial activity against oxacillin-resistant Staphylococcus epidermidis clinical isolates assessed as resistant isolates by broth microdilution method
[22] = test system: Staphylococcus haemolyticus; test: Antimicrobial activity against oxacillin-resistant Staphylococcus haemolyticus clinical isolates by broth microdilution method
[23] = test system: Staphylococcus epidermidis; test: Antimicrobial activity against Staphylococcus epidermidis clinical isolates by broth microdilution method
[24] = test system: Staphylococcus haemolyticus; test: Antimicrobial activity against oxacillin-resistant Staphylococcus haemolyticus clinical isolates assessed as percent susceptible isolates by broth microdilution method
[25] = test system: Staphylococcus epidermidis; test: Antimicrobial activity against Staphylococcus epidermidis clinical isolates assessed as resistant isolates by broth microdilution method
[26] = test system: Staphylococcus epidermidis; test: Antimicrobial activity against oxacillin-resistant Staphylococcus epidermidis clinical isolates assessed as percent susceptible isolates by broth microdilution method
Staphylococcus aureus [27] = test: Antimicrobial activity against oxacillin-susceptible Staphylococcus aureus clinical isolates assessed as resistant isolates by broth microdilution method

Cc1onc(-c2ccccc2)c1C(=O)N[C@@H]1C(=O)N2[C@@H]1SC(C)(C)[C@@H]2C(=O)O [OXACILLIN]
Activity (Staphylococcus aureus [1]): 0% | Resistant isolates [2]: 73.2% | Percent of isolates resistant [3]: 0% | MIC90 [4]: 0.12 µg/mL (≈ 0.299 µM) | Activity [5]: 27.3% | MIC90 [6]: > 8 µg/mL | Activity [7]: 100% | Activity [8]: 0% | Activity [9]: 100% | Percent resistant isolates (Staphylococcus aureus [10]): 53.8% | MIC90 [11]: 0.25 µg/mL (≈ 0.623 µM) | MIC90 (Staphylococcus aureus [12]): > 8 µg/mL | Activity (Staphylococcus aureus [13]): 100% | Activity [14]: 26.8% | MIC90 (Staphylococcus aureus [15]): 0.5 µg/mL (≈ 1.25 µM) | MIC90 (Staphylococcus aureus [16]): > 8 µg/mL | Percent resistant isolates (Staphylococcus aureus [17]): 100% | Activity [18]: 100% | MIC90 [19]: > 8 µg/mL | Activity (Staphylococcus aureus [20]): 46.2% | Percent of isolates resistant [21]: 100% | MIC90 [22]: > 8 µg/mL | MIC90 [23]: > 8 µg/mL | Activity [24]: 0% | Percent of isolates resistant [25]: 72.7% | Activity [26]: 0% | Percent of isolates resistant (Staphylococcus aureus [27]): 0%
